This is an account of results in patent US20140309295A1, “ANTIEPILEPTIC, HYPOCHOLESTEROLEMIC AND NEUROPROTECTIVE COMPOUND” (NEURON BIOPHARMA, S.A., priority 2009, published 2014).

For assay [1], the system named is human neuroblastoma SK-N-MC cells. Briefly: Protection against neuronal death induced by inhibition of succinate dehydrogenase (3-NP), WST-1. It counts as cell-based. The following applies: 40 μM NST0037; 30 μM 3-NP. The procedure:
The assay was performed on human neuroblastoma SK-N-MC cells in culture from the American Type Culture Collection (ATCC), in all cases strict rules of sterility were followed and the manipulation was performed in class II biological safety cabinets following European standard EN 12469. The cells were maintained in the following culture medium: Minimum Essential Medium Eagle (MEM) supplemented with 1 mM sodium pyruvate, 2 mM L-glutamine, 0.1 mM non-essential amino acids, 0.05 mg/ml gentamicin and 10% fetal bovine serum.
The inhibition caused by compound NST0037 of cell death caused by treatment with 3-Nitropropionic (3-NP) acid was analyzed. 3-NP is an irreversible inhibitor of the succinate dehydrogenase enzyme which in animal models causes oxidative stress and apoptotic cell death in the striatum, which mimics neurochemical and anatomical changes associated with Huntington's disease (HD). […]
The cells were incubated (at 37° C. and 5% CO2) with these treatments for 22 hours, after which time the WST-1 reagent (Roche) was added. […] The formazan which is formed can be detected colorimetrically since it has an absorbance of 440 nm. The reading was taken in a plate reader at 440 nm 2 hours after adding the reagent.
On the technique in general: Formazan colour is commonly taken as a measure of viable cells.

Assay [2] deals with Hep G2 (human hepatocarcinoma) line. Briefly: Total cholesterol levels in hepatic cell line. It counts as cell-based. The following applies: HepG2, acid compounds, 20 hours, absence of FBS. The procedure:
(§1) To carry out this assay, the compounds were activated with NaOH until the lactone form was completely opened.
(§2) Both the Hep G2 (human hepatocarcinoma) line and the SK-N-MC (human neuroblastoma) line were obtained from the American Type Culture Collection (ATCC no. HB-8065 and HTB-10 respectively). In all cases strict rules of sterility were followed and the manipulation was performed in class II biological safety cabinets following European standard EN 12469. The cells maintained in passage were seeded in 96-well plates in MEM supplemented with 10% FBS, 2 mM L-glutamine, 1 mM sodium pyruvate, 0.1 mM non-essential amino acids and 0.05 mg/mL gentamicin. In the case of HepG2, 4×10^4 cells/well were seeded and in the case of SK-N-MC 5×10^4 cells/well were seeded. After 24 hours had elapsed from the seeding, the cells were deprived of FBS for 8 hours. The cells were then incubated with the treatments at various concentrations for 20 hours. After the incubation period, the cells were washed with PBS and lysed with a phosphate buffer with 0.5% Triton X-100. […]
(§3) The total cholesterol was quantified by means of enzymatic and fluorometric techniques. […] The fluorescence intensity was determined at 530 nm of excitation and 580 nm of emission by means of a fluorometer. The results were normalized by protein, which was determined by means of the BCA technique.

Assay [3] relates to SK-N-MC (human neuroblastoma) line. Nature of the assay: Total cholesterol levels in neuronal cell line. It is filed as cell-based. The following applies: acid compounds, 20 hours, absence of FBS. How it is done: as §1, §2, §3
The test system of a further assay is ApoB100 mice. Briefly: Hypocholesterolemic effect, oral three months, endogenous hyperlipidemia model. It counts as in vivo. The following applies: 50 mg/kg oral, 3 months. The procedure: All the animals included for the experimental process were 6-month old female mice. The experiments were conducted strictly following the Guidance on the Operation of Animals (Scientific Procedures, Act. 1986). The animals had their respective quarantine period and were treated with maximum precaution to minimize possible contaminations for inoculations and handling.
After a conditioning to the diet, 50 mg/kg of NST0021 or NST0037 were orally administered to the mice for 3 months, three times a week, using in both cases 0.25% carboxy methylcellulose in physiological saline as a vehicle. The control group received this same vehicle. Before starting the treatments and at one, two and three months of starting them, retro-orbital blood extractions after fasting for 16 hours were carried out. The plasma was obtained from said blood, in which the total cholesterol (TC), free cholesterol (FC), cholesterol (EC), HDL-c, LDL-c, VLDL-c levels were evaluated by enzymatic and spectrophotometric techniques.

As for `CCC(CC)C(=O)O[C@H]1C[C@@H](C)C=C2C=C[C@H](C)[C@H](CC[C@@H]3C[C@@H](O)CC(=O)O3)[C@H]21` [NST0037, (1S,2S,6R,8S,8aR)-1,2,6,7,8,8a-hexahydro-3,7-dimethyl-8-[2-[(2R,4R)-tetrahydro-4-hydroxy-6-oxo-2H-pyran-2-yl]ethyl]-1-naphthalenyl-2-ethyl-butyrate], the “protection against death caused by 3-NP” value in assay [1] amounted to 41%. In addition, the “reduction of total cholesterol levels” value in assay [2] is “more potent than simvastatin”. For the same compound, the “reduction of total cholesterol levels” value in assay [3] is listed as “reductions of cholesterol with both compounds were similar”. Besides, in the assay on ApoB100 mice, the “FC and EC levels” value is “significant reduction of both FC and EC”; the HDL-c levels result is “increase the HDL-c levels”; the “LDL-c levels vs simvastatin” value was “reduced to a greater extent”. In the assay with ApoB100 mice (three times a week, female apoB100 mice), the cholesterol fractions entry is recorded as “reduced the different cholesterol fractions”.
